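Dose response: 5 concentrations. Exposure: 48 h. Format: 96-well plates. Endpoint: linear interpolation; highest concentration if not reached. TGI marks complete inhibition of growth.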
Legend:
Test in all cases: NCI tumour cell line growth inhibition, 48 h
BT-549 breast = tested on: BT-549 breast
MDA-MB-231 breast = tested on: MDA-MB-231 breast
MDA-N = tested on: MDA-N
PC-3 prostate = tested on: PC-3 prostate
UO-31 renal = tested on: UO-31 renal
A498 renal = tested on: A498 renal
A549 NSCLC = tested on: A549 NSCLC
SK-MEL-2 melanoma = tested on: SK-MEL-2 melanoma
SK-OV-3 ovarian = tested on: SK-OV-3 ovarian
RXF 393 renal = tested on: RXF 393 renal
OVCAR-5 ovarian = tested on: OVCAR-5 ovarian
NCI-H460 lung = tested on: NCI-H460 lung
MDA-MB-435 = tested on: MDA-MB-435
UACC-257 melanoma = tested on: UACC-257 melanoma
SF-539 CNS = tested on: SF-539 CNS
HCC-2998 colon = tested on: HCC-2998 colon
T-47D breast = tested on: T-47D breast
HS 578T breast = tested on: HS 578T breast
RPMI-8226 leukemia = tested on: RPMI-8226 leukemia
DU-145 prostate = tested on: DU-145 prostate
LOX IMVI melanoma = tested on: LOX IMVI melanoma
786-0 renal = tested on: 786-0 renal
SF-295 CNS = tested on: SF-295 CNS
OVCAR-3 ovarian = tested on: OVCAR-3 ovarian
HT29 colon = tested on: HT29 colon
HCT-116 colon = tested on: HCT-116 colon
NCI-H23 lung = tested on: NCI-H23 lung
ACHN renal = tested on: ACHN renal
NCI-H226 lung = tested on: NCI-H226 lung
SNB-75 CNS = tested on: SNB-75 CNS
EKVX NSCLC = tested on: EKVX NSCLC
SK-MEL-28 melanoma = tested on: SK-MEL-28 melanoma
KM12 colon = tested on: KM12 colon
SNB-19 CNS = tested on: SNB-19 CNS
SF-268 CNS = tested on: SF-268 CNS
SW-620 colon = tested on: SW-620 colon
MOLT-4 leukemia = tested on: MOLT-4 leukemia
NCI/ADR-RES ovarian = tested on: NCI/ADR-RES ovarian
U251 CNS = tested on: U251 CNS
OVCAR-8 ovarian = tested on: OVCAR-8 ovarian
COLO 205 colon = tested on: COLO 205 colon
M14 melanoma = tested on: M14 melanoma
CAKI-1 renal = tested on: CAKI-1 renal
SN12C renal = tested on: SN12C renal
HL-60(TB) leukemia = tested on: HL-60(TB) leukemia
SR leukemia = tested on: SR leukemia
MCF7 breast = tested on: MCF7 breast
K-562 leukemia = tested on: K-562 leukemia
HOP-92 NSCLC = tested on: HOP-92 NSCLC
TK-10 renal = tested on: TK-10 renal
UACC-62 melanoma = tested on: UACC-62 melanoma
NCI-H522 lung = tested on: NCI-H522 lung
IGROV1 ovarian = tested on: IGROV1 ovarian
OVCAR-4 ovarian = tested on: OVCAR-4 ovarian
CCRF-CEM leukemia = tested on: CCRF-CEM leukemia
SK-MEL-5 melanoma = tested on: SK-MEL-5 melanoma
HCT-15 colon = tested on: HCT-15 colon
HOP-62 NSCLC = tested on: HOP-62 NSCLC
MALME-3M melanoma = tested on: MALME-3M melanoma
DMS 114 small cell lung = tested on: DMS 114 small cell lung
KM20L2 colon = tested on: KM20L2 colon
DMS 273 small cell lung = tested on: DMS 273 small cell lung
DLD-1 colon = tested on: DLD-1 colon
SNB-78 CNS = tested on: SNB-78 CNS
M19-MEL melanoma = tested on: M19-MEL melanoma
HOP-18 NSCLC = tested on: HOP-18 NSCLC

Measured: TGI

CCOP(=O)(O)C(Nc1ccc(N=Nc2ccccc2)cc1)c1cccc(C(Nc2ccc(N=Nc3ccccc3)cc2)P(=O)(O)OCC)c1 (stereo not drawn)
86.5 µM: RPMI-8226 leukemia
71.3 µM: HCC-2998 colon
58.1 µM: SF-295 CNS
77.4 µM: LOX IMVI melanoma
69.7 µM: HL-60(TB) leukemia
96.7 µM: CCRF-CEM leukemia
78.1 µM: UACC-62 melanoma
93.7 µM: SK-MEL-28 melanoma
40.9 µM: HT29 colon
58.5 µM: HOP-62 NSCLC
43.2 µM: COLO 205 colon
40 µM: K-562 leukemia
67.5 µM: PC-3 prostate
88.6 µM: A498 renal
60.5 µM: MOLT-4 leukemia
> 100 µM: BT-549 breast | MDA-MB-231 breast | MDA-N | UO-31 renal | A549 NSCLC | SK-MEL-2 melanoma | SK-OV-3 ovarian | RXF 393 renal | OVCAR-5 ovarian | NCI-H460 lung | MDA-MB-435 | UACC-257 melanoma | SF-539 CNS | T-47D breast | HS 578T breast | DU-145 prostate | 786-0 renal | OVCAR-3 ovarian | HCT-116 colon | NCI-H23 lung | ACHN renal | NCI-H226 lung | SNB-75 CNS | EKVX NSCLC | KM12 colon | SNB-19 CNS | SF-268 CNS | SW-620 colon | NCI/ADR-RES ovarian | U251 CNS | OVCAR-8 ovarian | M14 melanoma | CAKI-1 renal | SN12C renal | SR leukemia | MCF7 breast | HOP-92 NSCLC | TK-10 renal | NCI-H522 lung | IGROV1 ovarian | OVCAR-4 ovarian | SK-MEL-5 melanoma | HCT-15 colon | MALME-3M melanoma

O=C1Cc2cn[nH]c2-c2ccccc2N1
> 59.7 µM: SK-MEL-5 melanoma
> 62 µM: MDA-MB-231 breast
> 61.6 µM: U251 CNS
> 35.2 µM: CAKI-1 renal
> 100 µM: MDA-N | PC-3 prostate | UO-31 renal | A498 renal | SK-OV-3 ovarian | SF-539 CNS | T-47D breast | HS 578T breast | DU-145 prostate | 786-0 renal | SF-295 CNS | HT29 colon | NCI-H23 lung | NCI-H226 lung | SNB-75 CNS | SK-MEL-28 melanoma | SNB-19 CNS | SF-268 CNS | NCI/ADR-RES ovarian | OVCAR-8 ovarian | MCF7 breast | IGROV1 ovarian | HOP-62 NSCLC
> 75.1 µM: OVCAR-4 ovarian
71.8 µM: SR leukemia
> 83.8 µM: SK-MEL-2 melanoma
33.6 µM: LOX IMVI melanoma
91.5 µM: TK-10 renal
> 78.3 µM: HL-60(TB) leukemia
> 60.5 µM: UACC-257 melanoma
61.5 µM: BT-549 breast
56.6 µM: K-562 leukemia
> 30.7 µM: HOP-92 NSCLC
53.1 µM: CCRF-CEM leukemia
> 83.5 µM: HCT-116 colon
> 69.8 µM: NCI-H460 lung
> 64.2 µM: A549 NSCLC
> 55.2 µM: M14 melanoma
> 63.9 µM: SN12C renal
37.5 µM: OVCAR-3 ovarian
> 63.3 µM: HCT-15 colon
67.3 µM: HCC-2998 colon
> 67.3 µM: KM12 colon
> 64 µM: COLO 205 colon
> 55.7 µM: ACHN renal
> 69.7 µM: MALME-3M melanoma
> 57.5 µM: OVCAR-5 ovarian
49.7 µM: MOLT-4 leukemia
63.5 µM: UACC-62 melanoma
66.1 µM: RPMI-8226 leukemia
65.8 µM: NCI-H522 lung
59.7 µM: MDA-MB-435
32.4 µM: SW-620 colon
72.3 µM: RXF 393 renal
95.4 µM: EKVX NSCLC

CN(C)CCN1CCc2c([nH]c3ccccc23)C1c1cccnc1 (stereo not drawn)
> 100 µM: UO-31 renal | A498 renal | DMS 114 small cell lung | A549 NSCLC | SK-OV-3 ovarian | RXF 393 renal | OVCAR-5 ovarian | NCI-H460 lung | UACC-257 melanoma | KM20L2 colon | SF-539 CNS | HCC-2998 colon | RPMI-8226 leukemia | 786-0 renal | SF-295 CNS | OVCAR-3 ovarian | HT29 colon | DMS 273 small cell lung | HCT-116 colon | NCI-H23 lung | SNB-75 CNS | EKVX NSCLC | SK-MEL-28 melanoma | DLD-1 colon | KM12 colon | SNB-78 CNS | SNB-19 CNS | SF-268 CNS | M19-MEL melanoma | SW-620 colon | MOLT-4 leukemia | U251 CNS | OVCAR-8 ovarian | M14 melanoma | CAKI-1 renal | SN12C renal | HL-60(TB) leukemia | SR leukemia | K-562 leukemia | HOP-92 NSCLC | TK-10 renal | UACC-62 melanoma | NCI-H522 lung | IGROV1 ovarian | HOP-18 NSCLC | OVCAR-4 ovarian | CCRF-CEM leukemia | SK-MEL-5 melanoma | HCT-15 colon | HOP-62 NSCLC
50.9 µM: ACHN renal

COC(=O)C(=O)Nc1cc2c3c(c1)Oc1cccc4c1C3(C)c1c(cccc1O2)O4
> 66.3 µM: DU-145 prostate
14.2 µM: HL-60(TB) leukemia
> 31.6 µM: COLO 205 colon
44.8 µM: NCI-H226 lung
> 40.6 µM: HT29 colon
8.7 µM: CCRF-CEM leukemia
> 79.7 µM: 786-0 renal
56.9 µM: RXF 393 renal
> 76.6 µM: SF-539 CNS
> 100 µM: BT-549 breast | MDA-MB-231 breast | MDA-N | PC-3 prostate | UO-31 renal | A498 renal | A549 NSCLC | SK-MEL-2 melanoma | SK-OV-3 ovarian | OVCAR-5 ovarian | NCI-H460 lung | MDA-MB-435 | UACC-257 melanoma | HCC-2998 colon | T-47D breast | HS 578T breast | RPMI-8226 leukemia | LOX IMVI melanoma | SF-295 CNS | OVCAR-3 ovarian | HCT-116 colon | NCI-H23 lung | ACHN renal | SNB-75 CNS | EKVX NSCLC | SK-MEL-28 melanoma | KM12 colon | SNB-19 CNS | SF-268 CNS | SW-620 colon | MOLT-4 leukemia | NCI/ADR-RES ovarian | U251 CNS | OVCAR-8 ovarian | M14 melanoma | CAKI-1 renal | SN12C renal | SR leukemia | MCF7 breast | K-562 leukemia | HOP-92 NSCLC | TK-10 renal | UACC-62 melanoma | NCI-H522 lung | IGROV1 ovarian | OVCAR-4 ovarian | SK-MEL-5 melanoma | HCT-15 colon | HOP-62 NSCLC | MALME-3M melanoma
